Patent US20090163451A1, “METHODS FOR TREATING VISCERAL PAIN” (priority 2007, published 2009)
Entries after “also recorded” stand apart in the source; their conditions may differ.

Assays:
[1] = tested on: rats with experimental colonic hypersensitivity (butyrate), referred lumbar hypersensitivity; assay: colonic hypersensitivity model (intracolonic sodium butyrate): referred lumbar hypersensitivity, von Frey mechanical threshold; type: in vivo, Sprague Dawley rats; details: for behavior of rats previously injected with intracolonic vehicle: control rats
Method: (§1) Adult male Sprague Dawley rats (Harlan, Indianapolis, Ind.), weighing 150-200 g, were maintained in a climate-controlled room with ad lib food and water on a 12 hour/12 hour light/dark cycle (lights on at 07:00 hours). All procedures followed the policies of the International Association for the Study of Pain and the NIH guidelines for the handling and use of laboratory animals. Studies were approved by the University of Arizona IACUC.
(§2) Dibutyltin dichloride (DBTC) was obtained from Sigma-Aldrich (Milwaukee, Wis.) and dissolved in 100% ethanol to a concentration of 8 mg/kg (Sparmann et al., Gastroenterology. 112:1664-1672 (1997))). Sumatriptan succinate was obtained from Toronto Research Chemicals (ON, Canada) and dissolved in saline to 1, 3, and 10 μg for RVM microinjections and 100, 200, and 300 μg/kg for systemic injections (Kayser et al., Br J Pharmacol. 137:1287-1297 (2002)). The 5HT1B antagonist isamoltane and the 5HT1D antagonist BRL15722 were obtained from Tocris (Elllisville, Mo.). Isamoltane was dissolved in saline to a concentration of 3 μg for RVM microinjection and to a concentration of 4 mg/kg (Ottani et al., Eur J Pharmacol. 497:181-186 (2004)) for system application. BRL15722 was dissolved in 10% DMSO to a concentration of 3 μg for RVM microinjection and to a concentration of 0.3 mg/kg (Ottani et al., Eur J Pharmacol. 497:181-186 (2004)) for systemic application.
(§3) For the experiments involving microinjection of drugs into the RVM, rats underwent surgeries to implant RVM cannulae. After five days of recovery, rats received either intravenous injection of DBTC to induce pancreatitis, or intracolonic injection of sodium butyrate to induce colonic hypersensitivity. Animals were monitored for development of visceral hypersensitivity on the subsequent days. On day six after either induction of pancreatitis or colonic hypersensitivity, animals underwent baseline behavioral measurements. Sumatriptan was microinjected into the RVM at different doses (separate groups of rats for each dose) and animals were monitored behaviorally for two h after sumatriptan application in the RVM. For experiments investigating the effects of serotonin antagonists, the drugs were microinjected concurrently with injection of sumatriptan and animals were monitored for the subsequent two h. Separate groups of animals were microinjected with the antagonists alone to control for possible effects of the drugs by themselves.
(§4) For the experiments involving systemic drug administration, rats received intravenous injection of DBTC to induce pancreatitis or intracolonic injection of sodium butyrate to induce colonic hypersensitivity. On day six after either induction of pancreatitis of colonic hypersensitivity, animals underwent baseline behavioral measurements. Sumatriptan was injected intraperitoneally at different doses (separate groups of rats for each dose) and the animals were monitored behaviorally every 20 min for two h after injection. For experiments investigating the effects of serotonin antagonists, the drugs were injected intraperitoneally immediately following the injection of sumatriptan (separate groups for each respective antagonist). Separate groups of animals were injected with the antagonists alone. Additionally, separate groups of animals were injected with sumatriptan systemically and microinjected with the antagonists in the RVM to determine if the RVM is a site of action for systemically applied sumatriptan. The microinjection of antagonists into the RVM was done immediately following the systemic injection of sumatriptan. All animals were tested for behavioral signs of hypersensitivity every 20 min for two h after the end of the injections.
Colonic hypersensitivity was induced by enemas of a sodium butyrate solution ([…]) twice daily for 3 days (Bourdu et al., Gastroenterology. 128:1996-2008 (2005)). […]

[2] = molecular target: β-2 adrenergic receptors (Homo sapiens, UniProt P07550); details: reported; cited from earlier work
Chain of β-2 adrenergic receptors (P07550 whole entry): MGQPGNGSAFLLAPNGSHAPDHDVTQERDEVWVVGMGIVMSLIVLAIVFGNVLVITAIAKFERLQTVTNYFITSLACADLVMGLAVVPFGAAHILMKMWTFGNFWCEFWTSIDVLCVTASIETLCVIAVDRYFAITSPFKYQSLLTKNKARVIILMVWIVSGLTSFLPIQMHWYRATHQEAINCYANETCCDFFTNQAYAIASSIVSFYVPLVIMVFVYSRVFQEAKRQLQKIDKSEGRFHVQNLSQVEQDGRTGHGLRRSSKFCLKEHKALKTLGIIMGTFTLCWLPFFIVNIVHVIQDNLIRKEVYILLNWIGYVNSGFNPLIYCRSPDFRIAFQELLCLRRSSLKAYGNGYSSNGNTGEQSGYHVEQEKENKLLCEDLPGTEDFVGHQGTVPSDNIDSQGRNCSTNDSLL

[3] = tested on: rats with experimental pancreatitis (DBTC), referred abdominal hypersensitivity; assay: experimental pancreatitis model (IV DBTC): referred abdominal hypersensitivity, withdrawals to von Frey filament; type: in vivo, Sprague Dawley rats
Method: as §1, §2
as §3, with “Sumatriptan was microinjected into the RVM at different doses (separate groups of rats for each dose) and animals were monitored behaviorally for two h after sumatriptan application in the RVM.” left out
as §4, with “Sumatriptan was injected intraperitoneally at different doses (separate groups of rats for each dose) and the animals were monitored behaviorally every 20 min for two h after injection. For experiments investigating the effects of serotonin antagonists, the drugs were injected intraperitoneally immediately following the injection of sumatriptan (separate groups for each respective antagonist).” left out
Pancreatitis was produced by a tail vein injection of dibutyltin dichloride (DBTC, Aldrich, Milwaukee, Wis., 0.25 cc) dissolved in 100% ethanol at a dose of 8 mg/kg under isofluorane anesthesia (2-3 liters/min, 4.0%/vol until anesthetized, then 2.5%/vol throughout the procedure; Vera-Portocarrero et al., Gastroenterology. 130:2155-2164 (2006)). Control animals were injected with the vehicle solution only (100% ethanol, 0.25 mL).
Referred abdominal hypersensitivity in the pancreatitis model was quantified by measuring the number of withdrawal events evoked by application of a calibrated von Frey filament (determined by either abdominal withdrawal, licking of the abdominal area, or whole body withdrawal). Rats were placed inside Plexiglas boxes on an elevated fine fiberglass screen mesh and acclimated for 30 minutes before testing. […]

[4] = tested on: rats with experimental colonic hypersensitivity (butyrate), referred lumbar hypersensitivity; assay: colonic hypersensitivity model (intracolonic sodium butyrate): referred lumbar hypersensitivity, von Frey mechanical threshold; type: in vivo, Sprague Dawley rats; details: 10 μg IV, up to 120 minutes postinjection, data not shown
[5] = tested on: thermal hypersensitivity induced by intraplantar injection of carrageenan; details: injected systemically at similar doses used in the present study (Bingham et al.); cited from earlier work
[6] = tested on: evoked release of calcitonin gene-related peptide from the rat isolated spinal cord; details: rat isolated spinal cord (Arvieu et al.); cited from earlier work
[7] = tested on: acetic acid-induced abdominal writhing in mice; details: mice (Ghelardini et al.; Jain et al.); cited from earlier work
[8] = tested on: capsaicin-induced hyperemia in the sciatic nerve; details: Zochodne and Ho; cited from earlier work
[9] = RVM microinjection, butyrate rats

Q: What does the source list for CC(C)NCC(O)COc1ccccc1-n1cccc1 (stereo not drawn) [isamoltane]?
A: effect of concurrent RVM antagonist on the effect of RVM sumatriptan ([1]; sumatriptan 10 μg RVM, antagonist 3 μg RVM, butyrate rats): blocked the effects of sumatriptan; also recorded: blocked the effect of RVM sumatriptan; effect of RVM antagonist on the effect of systemic sumatriptan ([1]; sumatriptan 300 μg/kg IP, antagonist 3 μg RVM, butyrate rats): failed to antagonize the effects of systemic sumatriptan; also recorded: did not modify the effect of systemic sumatriptan; effect of concurrent systemic (IP) antagonist on the effect of systemic sumatriptan ([1]; sumatriptan 300 μg/kg IP, isamoltane 4 mg/kg IP or BRL15722 0.3 mg/kg IP, butyrate rats): reduced the effects of sumatriptan; also recorded: blocked the effect of systemic sumatriptan; activity at β-2 adrenergic receptors [2]: reported to have activity at β-2 adrenergic receptors; effect of concurrent RVM antagonist on the effect of RVM sumatriptan ([3]; sumatriptan 10 μg RVM, antagonist 3 μg RVM, DBTC rats): blocked the effect of sumatriptan; effect of RVM antagonist on the effect of systemic sumatriptan ([3]; sumatriptan 300 μg/kg IP, antagonist 3 μg RVM, DBTC rats): failed to antagonize the effects of systemic sumatriptan; also recorded: did not modify the effect of systemic sumatriptan; effect of concurrent systemic (IP) antagonist on the effect of systemic sumatriptan ([3]; sumatriptan 300 μg/kg IP, isamoltane 4 mg/kg IP or BRL15722 0.3 mg/kg IP, DBTC rats): reduced the effects of sumatriptan; also recorded: blocked the effects of sumatriptan

Q: With CNS(=O)(=O)Cc1ccc2[nH]cc(CCN(C)C)c2c1 [sumatriptan] as the compound, how does the “reduced lumbar mechanical threshold after IV sumatriptan” value [4] read?
A: did not reverse the reduction in threshold

Q: And the “thermal hypersensitivity induced by intraplantar carrageenan” value [5]?
A: attenuated

Q: And the “evoked release of calcitonin gene-related peptide” value [6]?
A: inhibits

Q: What about the “mechanical threshold of rats injected with sodium butyrate” value ([1]; IP sumatriptan 100, 200, 300 μg/kg) of the same compound?
A: restored tactile thresholds of butyrate-treated rats in a dose dependent manner; also recorded: increased the mechanical threshold of rats injected with sodium butyrate in a time- and dose-dependent manner

Q: What about the “behavior of rats previously injected with intracolonic vehicle” value ([1]; IP sumatriptan) of the same compound?
A: did not modify the behavior

Q: And the “time for which systemic sumatriptan was active postinjection” value ([1]; IP, butyrate rats)?
A: 60 min

Q: What about the “time of peak effect” value ([1]; IP, butyrate rats) of the same compound?
A: 40 min

Q: What about the “time point by which the effect dissipated” value ([1]; IP, butyrate rats) of the same compound?
A: up to 100 minute

Q: What about the “time to reversal of reduced mechanical threshold after administration” value ([1]; IP, butyrate rats) of the same compound?
A: ≤ 20 min

Q: And the “A50 (and 95% CI) dose for IP sumatriptan” value ([1]; IP, butyrate rats, lumbar mechanical threshold)?
A: 232.6 (182.2-322.8) μg/kg

Q: What about the “lumbar hypersensitivity / lumbar dermatome mechanical threshold after RVM administration” value ([1]; RVM microinjection 1, 3, 10 μg, butyrate rats) of the same compound?
A: restored tactile thresholds of butyrate-treated rats in a dose dependent manner; also recorded: time- and dose-dependent attenuation of lumbar hypersensitivity

Q: And the “time by which the effects of RVM sumatriptan dissipated” value [1, 9]?
A: ≤ 100 min

Q: And the “time for which the effects of RVM sumatriptan endured” value [1, 9]?
A: approximately 60 minutes

Q: What about the “time of peak effect” value [1, 9] of the same compound?
A: 40 min

Q: And the “time to reversal of reduced mechanical threshold after administration” value [1, 9]?
A: ≤ 20 min

Q: And the “behavior of rats previously injected with intracolonic vehicle” value ([1]; RVM microinjection)?
A: did not modify the behavior

Q: What about the “A50 (and 95% CI) dose for RVM sumatriptan” value ([1]; microinjection into the RVM, butyrate rats, lumbar mechanical threshold) of the same compound?
A: 3.2 (2.0-12.5) μg

Q: What about the “mechanical threshold, single RVM dose” value ([1]; sumatriptan 10 μg into the RVM, butyrate rats, v. RVM saline) of the same compound?
A: increased the mechanical threshold

Q: What about the “mechanical threshold, single dose of systemic sumatriptan” value ([1]; sumatriptan 300 μg/kg IP, butyrate rats, v. saline) of the same compound?
A: increased the mechanical threshold

Q: And the “frequency of abdominal withdrawals after IV sumatriptan” value ([3]; 10 μg IV, DBTC rats, up to 120 minutes postinjection, data not shown)?
A: not altered

Q: And the “frequency of withdrawals in DBTC-injected rats” value ([3]; IP sumatriptan 100, 200, 300 μg/kg, day 6 after DBTC)?
A: reduced abdominal withdrawals in pancreatic rats in a dose-dependent manner; also recorded: reduced the frequency of withdrawals in DBTC-injected rats in a time- and dose-dependent manner

Q: And the “responses to abdominal stimulation in vehicle-injected control rats” value ([3]; IP sumatriptan, rats without pancreatitis)?
A: did not alter responses to abdominal stimulation

Q: And the “time for which systemic sumatriptan was active postinjection” value ([3]; IP, DBTC rats)?
A: up to 100 minutes

Q: What about the “time of peak effect” value ([3]; IP, DBTC rats) of the same compound?
A: 40 min

Q: What about the “time point at which the effect dissipated” value ([3]; IP, DBTC rats) of the same compound?
A: 120 min

Q: And the “time to attenuation of withdrawals after administration” value ([3]; IP, DBTC rats)?
A: ≤ 20 min

Q: What about the “A50 dose (and 95% confidence interval) for IP sumatriptan” value ([3]; IP, day 6 after IV DBTC, frequency of abdominal withdrawals, A50 = dose producing a 50% response) of the same compound?
A: 172.4 (124.5-386.7) μg/kg

Q: And the “frequency of withdrawals after RVM administration” value ([3]; RVM microinjection 1, 3, 10 μg, DBTC rats)?
A: reduced the number of withdrawals in a dose-dependent manner; also recorded: attenuated the increased frequency of withdrawals

Q: And the “time by which the effects of RVM sumatriptan dissipated” value ([3]; RVM microinjection, DBTC rats)?
A: ≤ 100 min

Q: And the “time for which the effects of RVM sumatriptan endured” value ([3]; RVM microinjection, DBTC rats)?
A: approximately 60 minutes

Q: And the “time of peak effect” value ([3]; RVM microinjection, DBTC rats)?
A: 40 min

Q: What about the “time to attenuation of withdrawals after administration” value ([3]; RVM microinjection, DBTC rats) of the same compound?
A: ≤ 20 min

Q: What about the “responses to abdominal stimulation in vehicle-injected rats” value ([3]; RVM microinjection, rats without pancreatitis) of the same compound?
A: did not alter responses to abdominal stimulation

Q: What about the “A50 dose (and 95% CI) for RVM sumatriptan” value ([3]; microinjection into the RVM, DBTC rats, frequency of withdrawals) of the same compound?
A: 4.3 (3.1-16.2) μg

Q: And the “frequency of withdrawals, single RVM dose” value ([3]; sumatriptan 10 μg into the RVM, DBTC rats, v. RVM saline)?
A: attenuated the frequency of withdrawals; also recorded: reduced the frequency of withdrawals

Q: What about the “frequency of withdrawals, single dose of systemic sumatriptan” value ([3]; sumatriptan 300 μg/kg IP, DBTC rats, v. saline) of the same compound?
A: attenuated the frequency of withdrawals; also recorded: reduced the frequency of withdrawals

Q: And the “antinociceptive efficacy in acetic acid-induced abdominal writhing” value [7]?
A: has antinociceptive efficacy

Q: What about the “capsaicin-induced hyperemia in the sciatic nerve” value [8] of the same compound?
A: inhibits capsaicin-induced hyperemia
